Data reported in US20250073249A1, “STEROID COMPOUND, AND PREPARATION METHOD THEREFOR AND USE THEREOF” (SHANGHAI INSTITUTE OF MATERIA MEDICA, CHINESE ACADEMY OF …, priority 2022, published 2025).
Positions count from the first letter of the chain named.

Columns and labels:
wild-type AR = biological target: T1, wild-type AR (Homo sapiens, UniProt P10275); experiment: Wild-type AR antagonist activity test (luciferase reporter in HEK293 cells); assay type: cell-based; conditions: for IC50: HEK293 cells, luciferase expression, DHT 1.5 nM, 24 hours; for AR antagonist activity, times higher than that of the control enzalutamide: ratio to enzalutamide IC50
T1 construct: expressed in transfected cells; host or cells: HEK293
T1 sequence (P10275 1-920): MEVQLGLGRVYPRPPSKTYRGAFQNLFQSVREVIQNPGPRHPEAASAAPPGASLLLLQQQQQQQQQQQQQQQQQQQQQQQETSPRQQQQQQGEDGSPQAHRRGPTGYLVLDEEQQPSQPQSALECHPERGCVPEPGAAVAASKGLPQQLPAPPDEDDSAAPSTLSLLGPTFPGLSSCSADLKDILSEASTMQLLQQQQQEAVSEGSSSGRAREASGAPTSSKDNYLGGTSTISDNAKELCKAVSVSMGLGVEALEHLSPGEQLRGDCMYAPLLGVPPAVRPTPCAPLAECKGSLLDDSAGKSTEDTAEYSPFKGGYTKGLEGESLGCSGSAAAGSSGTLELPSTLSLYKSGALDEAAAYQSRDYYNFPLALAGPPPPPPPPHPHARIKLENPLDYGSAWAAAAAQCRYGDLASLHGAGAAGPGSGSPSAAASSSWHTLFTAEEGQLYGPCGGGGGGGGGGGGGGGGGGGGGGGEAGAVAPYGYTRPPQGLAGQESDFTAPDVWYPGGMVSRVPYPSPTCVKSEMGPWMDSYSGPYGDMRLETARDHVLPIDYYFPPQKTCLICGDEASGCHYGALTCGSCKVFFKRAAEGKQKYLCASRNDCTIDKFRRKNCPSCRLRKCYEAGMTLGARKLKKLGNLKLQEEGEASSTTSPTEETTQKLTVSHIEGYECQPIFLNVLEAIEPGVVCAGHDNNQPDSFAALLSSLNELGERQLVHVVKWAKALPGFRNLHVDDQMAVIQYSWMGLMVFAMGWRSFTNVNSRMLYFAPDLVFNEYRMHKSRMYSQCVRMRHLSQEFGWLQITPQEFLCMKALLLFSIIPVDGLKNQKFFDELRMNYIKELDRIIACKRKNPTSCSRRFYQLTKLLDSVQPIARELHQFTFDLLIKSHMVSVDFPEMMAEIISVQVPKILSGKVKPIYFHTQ
Experimental: HEK293 cells were cultured in DMEM containing 10% fetal bovine serum (FBS) at 37° C. with 5% CO2. The cells were then digested with trypsin and counted. A 10 μL/well transfection solution was prepared in opti-MEM containing 5 ng androgen receptor clone, 100 ng pGL4.36 vector, and 315 nL fugene. […] The diluted cell suspension was seeded into 96-well plates at 90 μL (40,000 cells/well), and the plates were incubated for 24 hours. Then, 10 μL of drug solution (including gradient diluted compounds or DMSO) was added, and the plates were incubated for 30 minutes. […] After 24 hours of incubation, 100 μL of Steady-Glo was added to each well of the plate, the plate was shaken at room temperature for 20 minutes, and read on an Envision.

AR(F876L) = biological target: T2, AR(F876L) (Homo sapiens, UniProt P10275, F877L); experiment: Mutant AR antagonistic activity test, F876L (reporter gene in HEK293 cells); assay type: cell-based; conditions: DHT 10 nM, 24 hours, read-out: F876L IC50(nM) 2nd gen AR antagonist resistant mutation
T2 construct: expressed in transfected cells; host or cells: HEK293
T2 sequence (P10275 1-920 F877L): T1 sequence (P10275 1-920) with F877L
Experimental: HEK293 cells were cultured in DMEM supplemented with 10% FBS and 1% GlutaMax at 37° C. with 5% CO2. The day before transfection, the medium was changed to DMEM containing 10% charcoal-stripped FBS and 1% GlutaMax. […] The cell suspension was diluted with cell seeding solution, and the transfection reagent was added to achieve 500,000 cells/mL. Subsequently, 90 μL of cell suspension was seeded into each well of the assay plate. The next day, compounds were prepared: starting from 8 mM, 3-fold serial dilutions were performed in DMSO for a total of 8 points, then 500 nL was transferred to the compound plate using Echo. The compounds were then diluted with 40 μL of medium to 10× final concentration, and 10 μL was transferred to the cell plate and incubated at 37° C. for 30 minutes. Subsequently, 10 nL of DHT at a final concentration of 10 nM was transferred to each well of the assay plate using TECAN. After 24 hours of incubation, 100 μL of Steady-Glo was added to the assay plate and read on an Envision reader. Data were determined and analyzed using GraphPad Prism.

Compound	IC50 (wild-type AR) [nM]	AR antagonist activity, times higher than that of the control enzalutamide (wild-type AR) [times]	IC50 (AR(F876L)) [nM]
Cc1cn(C2=CCC3C4CC=C5C[C@@H](NC(=O)c6ccc(F)cc6F)CC[C@]5(C)C4CC[C@]23C)cn1 (stereo partly drawn) [Compound 37, N-((3S,10R,13S)-17-(4-methyl-1H-imidazol-1-yl)-10,13-dimethyl-2,3,4,7,8,9,10,11,12,13,14,15-dodecahydro-1H-cyclopenta[a]phenanthren-3-yl)-2,4-difluorobenzamide]	235	1.9	273
Cc1cn(C2=CCC3C4CC=C5C[C@@H](NC(=O)c6ccc(F)cc6)CC[C@]5(C)C4CC[C@]23C)cn1 (stereo partly drawn) [Compound 33, N-((3S,10R,13S)-17-(4-methyl-1H-imidazol-1-yl)-10,13-dimethyl-2,3,4,7,8,9,10,11,12,13,14,15-dodecahydro-1H-cyclopenta[a]phenanthren-3-yl)-4-fluorobenzamide]	120	3.6	390
Cc1cn(C2=CCC3C4CC=C5C[C@@H](NC(=O)c6ccc(S(C)(=O)=O)cc6)CC[C@]5(C)C4CC[C@]23C)cn1 (stereo partly drawn) [Compound 35, N-((3S,10R,13S)-17-(4-methyl-1H-imidazol-1-yl)-10,13-dimethyl-2,3,4,7,8,9,10,11,12,13,14,15-dodecahydro-1H-cyclopenta[a]phenanthren-3-yl)-4-(methylsulfonyl)benzamide]	433	–	326
Cc1cn(C2=CCC3C4CC=C5C[C@@H](NC(=O)c6ccncc6)CC[C@]5(C)C4CC[C@]23C)cn1 (stereo partly drawn) [Compound 14, N-((3S,10R,13S)-10,13-dimethyl-17-(4-methyl-1H-imidazol-1-yl)-2,3,4,7,8,9,10,11,12,13,14,15-dodecahydro-1H-cyclopenta[a]phenanthren-3-yl)isonicotinamide]	247	1.8	268
